From patent US9796753B2, “N-substituted indenoisoquinolines and syntheses thereof” (Purdue Research Foundation, priority 2005, dated 2017)

Tests used:
Assay type in all cases: cell-based
breast MDA-MB-435 = assay: COMPARE screening (NCI human cancer cell line screen), cytotoxicity GI50
[1] = tested on: all human cancer cell lines successfully tested; assay: NCI screen mean graph midpoint (MGM) for growth inhibition
Method: COMPARE screening. The compounds described herein were examined for antiproliferative activity against the human cancer cell lines in the National Cancer Institute screen (COMPARE screening), in which the activity of each compound was evaluated with approximately 55 different cancer cell lines of diverse tumor origins. […] Therefore, the MGM value represents an overall assessment of toxicity of the compound across numerous cell lines.
(§1) Selected compounds were tested for antiproliferative activity in the National Cancer Institute's developmental therapeutics assay 60 cell line screen (NCI60). The cells were incubated with the tested compounds at 100, 10, 1, 0.1, and 0.01 μM concentrations for 48 h before treatment with sulforhodamine B dye. Optical densities were recorded, and their ratios relative to that of the control were plotted as percentage growth against the log 10 of the tested compound concentrations.
The cytotoxicities of the compounds to cultured cancer cells were measured in the National Cancer Institute's 60 cell line assay (a.k.a. NCI-60).

renal SN12C = assay: COMPARE screening (NCI human cancer cell line screen), cytotoxicity GI50
Method: as §1

lung HOP-62 = assay: as above
Method: as §1

ovarian OVCAR-3 = assay: as above
Method: as §1

melanoma UACC-62 = assay: as above
Method: as §1

prostate DU-145 = assay: as above
Method: as §1

CNS SF-539 = assay: as above
Method: as §1

colon HCT-116 = assay: as above
Method: as §1

[2] = Table 1, average GI50 of all cell lines tested (approximately 55), test range 10^−8 to 10^−4 molar

SMILES	GI50 (breast MDA-MB-435) [µM]	MGM (mean GI50 across cell lines) [1, 2] [µM]	GI50 (renal SN12C) [µM]	GI50 (lung HOP-62) [µM]	GI50 (ovarian OVCAR-3) [µM]	GI50 (melanoma UACC-62) [µM]	GI50 (prostate DU-145) [µM]	GI50 (CNS SF-539) [µM]	GI50 (colon HCT-116) [µM]	MGM (mean graph midpoint for growth inhibition) [1, 2] [µM]	MGM (mean GI50 across cell lines) ([1]; all human cancer cell lines successfully tested) [µM]
COc1cc2c3c(n(CCCn4ccnc4)c(=O)c2cc1OC)-c1ccccc1C3=O [Compound 5e]	0.014	0.033	< 0.01	< 0.01	< 0.01	< 0.01	< 0.01	< 0.01	0.01		
O=C1c2ccccc2-c2c1c1ccccc1c(=O)n2CCN1CCOCC1 [Compound 5j]	> 100	67.6	93.3	> 100	81.3	29.5	> 100	85.1	36.3		
COc1cc2c3c(n(CCCn4cncn4)c(=O)c2cc1OC)-c1cc2c(cc1C3=O)OCO2.Cl [Compound 5n, 6-{3-[2-(1,2,4)]-Triazolyl-1-propyl}-5,6-dihydro-2,3-dimethoxy-8,9-methylenedioxy-5,11-dioxo-11H-indeno[1,2-c]isoquinoline Hydrochloride]	> 100	3.55	0.085	0.079	61.7	< 0.01	0.085	0.288	1.91		
COc1cc2c3c(n(CCCN4CCN(C)CC4)c(=O)c2cc1OC)-c1cc2c(cc1C3=O)OCO2 [Compound 5t]	> 100	12.0	11.5	18.2	15.1	15.1	10.7	17.8	1.48		
COc1cc2c3c(n(CCN4CCOCC4)c(=O)c2cc1OC)-c1ccccc1C3=O [Compound 5h]	> 100	741	> 100	89.1	> 100	56.2	> 100	> 100	60.3		
COc1ccc2c(c1)C(=O)c1c-2n(CCCNCCO)c(=O)c2ccccc12.Cl [Compound 5bn]	0.389		0.158	0.026	0.417	0.55	0.055	0.112	0.044	0.124 ± 0.014	
O=C1c2ccccc2-c2c1c1ccccc1c(=O)n2CCNCCn1c2c(c3ccccc3c1=O)C(=O)c1ccccc1-2 [Compound 12a, Bis{(5,6-dihydro-5,11-diketo-11H-indeno[1,2-c]isoquinoline)-6-ethyl}amine]	> 25.1		> 25.1	> 25.1	> 25.1	> 25.1	> 25.1	> 25.1	> 25.1		18.2
O=C1c2ccccc2-c2c1c1ccccc1c(=O)n2CCNCCO [Compound S-2, oracin, reference compound]	2.56		0.95	1.62	3.85	1.42	1.28	1.65	1.12	1.90 ± 0.80	
COc1ccc2c(c1)C(=O)c1c-2n(CCCN2CCOCC2)c(=O)c2ccccc12 [Compound 5bk]	4.68		4.07	1.41	2.69	1.58	2.29	1.95	1.26	2.70 ± 0.125	
